The source of these data is ChEMBL document CHEMBL3044724, “Differential efficacy of three commonly used pyrethroids against laboratory and field-collected larvae and adults of Helicoverpa zea (Lepidoptera: Noctuidae) and significance for pyrethroid resistance management” (2010).

Holding throughout (assay type): functional
The test system of experiment [1] is Helicoverpa zea. As to the kind of experiment: Resistant ratio, ratio of LC90 for F1 generation of adult of Helicoverpa zea (corn earworm) to LC90 for adult of corn earworm.
For experiment [2], the system named is Helicoverpa zea. As to the kind of experiment: Resistant ratio, ratio of LC90 for F1 generation of third-instar of Helicoverpa zea (corn earworm) to LC90 for third-instar of corn earworm.
In experiment [3] the test system is Helicoverpa zea. As to the kind of experiment: Resistant ratio, ratio of LC50 for F1 generation of adult of Helicoverpa zea (corn earworm) to LC50 for adult of corn earworm.
In experiment [4] the test system is Helicoverpa zea. As to the kind of experiment: Resistant ratio, ratio of LC50 for F1 generation of third-instar of Helicoverpa zea (corn earworm) to LC50 for third-instar of corn earworm.
Experiment [5] has as its system Helicoverpa zea. Briefly: Insecticidal activity against F1 generation of adult of Helicoverpa zea (corn earworm) assessed as mortality per insecticide vial after 24 hr.
Experiment [6] relates to Helicoverpa zea. Briefly: Insecticidal activity against F1 generation of third-instar of Helicoverpa zea (corn earworm) assessed as mortality per insecticide vial after 48 hr.
Experiment [7] relates to Helicoverpa zea. As to the kind of experiment: Insecticidal activity against adult of Helicoverpa zea (corn earworm) assessed as mortality per insecticide vial after 24 hr.
In experiment [8] the test system is Helicoverpa zea. As to the kind of experiment: Insecticidal activity against third-instar of Helicoverpa zea (corn earworm) assessed as mortality per insecticide vial after 48 hr.

In the case of `CC(C)[C@H](C(=O)O[C@H](C#N)c1cccc(Oc2ccccc2)c1)c1ccc(Cl)cc1`, the Ratio in the experiment with Helicoverpa zea [1] is reported as 4.37; in the experiment with Helicoverpa zea [2], 3.17. Also, the RatioLC50 in the experiment on Helicoverpa zea [3] turned out to be 4.67; in the experiment with Helicoverpa zea [4] it was 3.75. Also, the LC50 in the experiment with Helicoverpa zea [5] was 2.3 µg; in the experiment on Helicoverpa zea [6] it was 1.51 µg; with Helicoverpa zea [7], 0.49 µg; in the experiment with Helicoverpa zea [8] it was 0.4 µg. The LC90 stood at 5.9 µg with Helicoverpa zea [5], 4.59 µg with Helicoverpa zea [6], 1.35 µg in the experiment on Helicoverpa zea [7] and 1.45 µg in the experiment on Helicoverpa zea [8].

As for `CC1(C)C(C=C(Cl)Cl)C1C(=O)OC(C#N)c1cccc(Oc2ccccc2)c1` (stereo not drawn) [ALPHA-CYPERMETHRIN], the Ratio was 3.82 with Helicoverpa zea [1] and 6.28 with Helicoverpa zea [2]. Further, the RatioLC50 came out at 4.16 in the experiment on Helicoverpa zea [3] and 4.68 with Helicoverpa zea [4]. The LC50 in the experiment with Helicoverpa zea [5] was found to be 2.89 µg; with Helicoverpa zea [6], 1.71 µg; with Helicoverpa zea [7], 0.7 µg; in the experiment with Helicoverpa zea [8] it was 0.37 µg. Besides, the LC90 with Helicoverpa zea [5] is 7.12 µg; with Helicoverpa zea [6] it was 7.68 µg; in the experiment with Helicoverpa zea [7] it was 1.86 µg; with Helicoverpa zea [8] it was 1.22 µg.

As to `Cc1c(COC(=O)[C@@H]2[C@H](/C=C(\Cl)C(F)(F)F)C2(C)C)cccc1-c1ccccc1` [BIFENTHRIN], the results for the Ratio in the experiment with Helicoverpa zea [1] and with Helicoverpa zea [2] were 5.9 and 15.22, respectively. Besides, the RatioLC50 is reported as 9.28 in the experiment on Helicoverpa zea [3] and 9.41 in the experiment on Helicoverpa zea [4]. Besides, the LC50 in the experiment with Helicoverpa zea [5] amounted to 1.54 µg; in the experiment on Helicoverpa zea [6], 1.25 µg; in the experiment on Helicoverpa zea [7], 0.17 µg; with Helicoverpa zea [8], 0.13 µg. For the same compound, the LC90 with Helicoverpa zea [5] was 3.01 µg; in the experiment on Helicoverpa zea [6], 5.8 µg; in the experiment with Helicoverpa zea [7] it was 0.51 µg; with Helicoverpa zea [8] it was 0.38 µg.
